Source: patent publication US20230003721A1, “MITOTHERAPEUTICS FOR THE TREATMENT OF BRAIN DISORDERS” (The University of Florida Research Foundation, Inc., priority 2019, published 2023)
Where a name gives a salt, the structure may show the parent alone.

Experiments:
primary neurons [1] = experiment: TMRM fluorescence assay of inner mitochondrial membrane potential (ΔΨm); details: for TMRM Primary: primary screen; for TMRM Primary / hit in TMRM primary screen when assayed at 4 h: 12.5 μM; for TMRM Primary / TMRM Rescreen: 24 h
Description: Mitochondrial dyes. To assay the electrochemical potential across the inner mitochondrial membrane of cultured cells, we used the cell-permeant dye tetramethylrhodamine methyl ester (TMRM). For co-localization studies with Mt-GFP, TMRM was used at 20 nM on DIV14 and incubated for 30 min prior to imaging. For the orthogonal screen of compounds, TMRM was added to primary neurons on DIV13 at 10 nM, one hr prior to pintooling selected compounds, and incubated for 24 hr. Cells were washed 2× with pre-warmed fresh feeding media without B27 before measurements with a plate reader.
(§1) A CLARIOstar (BMG LABTECH) microplate reader was used to measure fluorescence of TMRM and luminescence produced from the ATP.
(§2) Mitochondrial membrane potential (Δψm) and luminescence-based ATP assays. […] Changes of ΔΨm in each well were monitored using the mitochondrial-specific, fluorescent dye TMRM (tetramethyl rhodamine, methyl ester; Molecular Probes) and measured using a CLARIOstar plate reader. […] This concentration was used throughout our experiments. […] Wells in columns 1 and 24 were not loaded with TMRM; these served to measure background signal which was subtracted from the wells to which TMRM was added. To measure the total ATP levels in neurons we utilized the CellTiter-Glo® luminescence-based ATP assay (Promega). DIV13 primary neurons were cultured for 24 h with either DMSO carrier or compound treatment, followed by removing 55 μl culture medium from each well. Plates were maintained at room temperature for 25 m, and 25 μl of CellTiter-Glo® Reagent with the substrate luciferin was then added to each well (Promega). Plates were covered with aluminum foil and shaken vigorously on an orbital shaker for 10 m at 200 rpm and maintained at room temperature for an additional 2 m in dark before being read with the plate reader set to the luminescence mode.
Compound library and hit picking rules. We screened 2400 compounds from the MicroSource Spectrum library. […] FIGS. 13A-13E provide details of the assays used from which hit picking rules were made. In essence, the average fluorescence for each compound in the TMRM assay was determined and compared to the average fluorescence for compounds in the population on each assay plate to produce a Z-score. The Z-scores for each individual compound assayed across the four replicate plates was then averaged.

primary neurons [2] = experiment: CellTiter-Glo luminescence-based ATP assay; format: cell-based, mouse; details: ATP orthogonal screen, 24 h
Description: Measurement of ATP production. The total amount of ATP produced by cultured primary neurons was measured by CellTiter-Glo Luminescent Cell Viability Assay (Promega). A recombinant luciferase enzyme catalyzed the mono-oxygenation of luciferin while hydrolyzing ATP produced by the cells and emitting light. We followed the manufacturer's protocol with primary neurons on DIV14.
as §1, §2
Compound library and hit picking rules. We screened 2400 compounds from the MicroSource Spectrum library. […] FIGS. 13A-13E provide details of the assays used from which hit picking rules were made. In essence, the average fluorescence for each compound in the TMRM assay was determined and compared to the average fluorescence for compounds in the population on each assay plate to produce a Z-score. The Z-scores for each individual compound assayed across the four replicate plates was then averaged. Because of significant well location effects (outer rows) on each assay plate (FIG. 13G), we selected primary hits as enhancing well fluorescence above the μplate by 3σplate for inner row wells (rows C-N, columns 3-22), and by 2.5σplate for outer row wells (rows A, B, O, P; columns 3-22) (FIG. 14C-D). […] All orthogonal assays employed inner wells of the 384-well plates.

Row | Compound | TMRM Primary (primary neurons [1]) [Z-scores] | TMRM Rescreen (primary neurons [1]) [Z-scores] | ATP (primary neurons [2]) [Z-scores] | hit in TMRM primary screen when assayed at 4 h (primary neurons [1])
1 | CC(C)NC[C@@H](O)COc1cccc2ccccc12.Cl [dexpropranolol hydrochloride [R(+)]] | 4.37 | 4.79 | 6.22 | 
2 | CCN(CC)CCNc1ccc(CO)c2sc3ccccc3c(=O)c12 [hycanthone] | 4.40 | 5.48 | 4.61 | 
3 | CC(=O)OCC(=O)[C@H]1CC[C@H]2[C@@H]3CCC4=CC(=O)CC[C@]4(C)[C@H]3CC[C@]12C [desoxycorticosterone acetate] | 2.81 | 1.08 | 3.62 | desoxycorticosterone acetate*
4 | CCCOc1ccc(C(=O)OCCN(CC)CC)cc1N [proparacaine hydrochloride] | 3.43 | 4.65 | 4.11 | 
5 | CCCNCC(O)COc1ccccc1C(=O)CCc1ccccc1 (stereo not drawn) [propafenone hydrochloride] | 3.75 | 5.04 | 5.18 | 
6 | CCCCCCCCCCC[C@@H](C[C@@H]1OC(=O)[C@H]1CCCCCC)OC(=O)[C@H](CC(C)C)NC=O [orlistat] | 3.43 | 1.56 | 2.36 | 
7 | OC(c1cc(C(F)(F)F)nc2c(C(F)(F)F)cccc12)C1CCCCN1 (stereo not drawn) [mefloquine] | 3.75 | 5.54 | 5.09 | 
8 | CN1CCN(C2=Nc3cc(Cl)ccc3Nc3ccccc32)CC1 [clozapine] | 3.24 | 5.80 | 3.88 | 
9 | C=C[C@H]1CN2CC[C@H]1C[C@H]2[C@H](OC(=O)OCC)c1ccnc2ccc(OC)cc12 [quinine ethyl carbonate] | 4.64 | 6.26 | 3.60 | 
10 | CC(C)N1CCN(c2ccc(OCC3COC(Cn4cncn4)(c4ccc(Cl)cc4Cl)O3)cc2)CC1 (stereo not drawn) [terconazole] | 5.15 | 5.95 | 2.82 | 
11 | trimebutine maleate | 3.79 | 5.82 | 6.14 | trimebutine maleate*
12 | OCCOCCN1CCN(C(c2ccccc2)c2ccc(Cl)cc2)CC1 (stereo not drawn) [hydroxyzine pamoate] | 3.15 | 6.04 | 5.22 | 
13 | Fc1ccc([C@@H]2CCNC[C@H]2COc2ccc3c(c2)OCO3)cc1 [paroxetine hydrochloride] | 3.53 | 3.26 | 4.41 | 
14 | CCOC(=O)[C@H](CCc1ccccc1)N[C@H]1CCc2ccccc2N(CC(=O)O)C1=O [benazepril hydrochloride] | 3.43 | 2.43 | 5.26 | 
15 | CCN(CC)CCOC(=O)C(Cc1cccc2ccccc12)CC1CCCO1 (stereo not drawn) [nafronyl oxalate] | 4.08 | 5.89 | 5.17 | nafronyl oxalate*
16 | Clc1ccc(CO/N=C(\Cn2ccnc2)c2ccc(Cl)cc2Cl)c(Cl)c1 [oxiconazole nitrate] | 3.08 | 3.28 | 5.76 | 
17 | CCCCOC(=O)c1ccc(O)cc1 [butyl paraben] | 3.42 | 4.18 | 3.84 | 
18 | CC(=O)c1ccc2c(c1)N(CCCN1CCC(CCO)CC1)c1ccccc1S2 [piperacetazine] | 5.30 | 5.01 | 5.80 | 

Row | Compound | TMRM Primary (primary neurons [1]) [Z-scores] | TMRM Rescreen (primary neurons [1]) [Z-scores] | ATP (primary neurons [2]) [Z-scores] | hit in TMRM primary screen when assayed at 4 h (primary neurons [1])
19 | O=C([O-])Cc1c[nH]cn1.[Na+] [imidazol-4-ylacetic acid sodium salt] | 3.58 | 4.56 | 4.61 | imidazol-4-ylacetic acid sodium salt*
20 | Nc1c(Br)cc(Br)cc1CN[C@H]1CC[C@H](O)CC1 [ambroxol hydrochloride] | 4.00 | 5.14 | 5.04 | 
21 | carvedilol phosphate | 5.81 | 5.43 | 6.87 | 
22 | CC(C)(c1ccc(O)cc1)c1ccc(O)cc1 [bisphenol a] | 3.35 | 7.40 | 4.73 | bisphenol a*
23 | CN1CCCC(n2nc(Cc3ccc(Cl)cc3)c3ccccc3c2=O)CC1 (stereo not drawn) [azelastine hydrochloride] | 7.06 | 6.13 | 5.30 | 
24 | COc1ccc2c(c1)CC[C@@H]1[C@@H]2CC[C@]2(C)[C@@H](O)CC[C@@H]12 [estradiol methyl ether] | 3.74 | 3.55 | 4.80 | 
25 | CCN(CC)C(=O)[C@@]1(c2ccccc2)C[C@H]1CN [levomilnacipran hydrochloride] | 3.26 | 3.53 | 3.87 | 
26 | CN(C)CCOC(c1ccccc1)c1ccccc1.Cn1c(=O)c2[nH]c(Cl)nc2n(C)c1=O [dimenhydrinate] | 3.98 | 4.31 | 4.94 | 
27 | C=CCc1ccc(O)c(OC)c1 [eugenol] | 4.17 | 3.10 | 4.39 | eugenol*
28 | COc1ccc(CN=c2[nH]c(N3CCC[C@H]3CO)ncc2C(=O)NCc2ncccn2)cc1Cl [avanafil] | 3.13 | 3.42 | 1.30 | 
29 | CC12CCC3c4ccc(OCc5ccccc5)cc4CCC3C1C[C@@H](O)[C@@H]2O (stereo partly drawn) [estriol benzyl ether] | 3.17 | 6.67 | 2.03 | 
30 | C/C(=C\CO)CCC[C@H](C)CCC[C@H](C)CCCC(C)C [phytol] | 3.42 | 2.70 | 4.63 | 
31 | CN(C)c1cc(NC(=O)CNC(C)(C)C)c(O)c2c1C[C@H]1C[C@H]3[C@H](N(C)C)C(O)=C(C(N)=O)C(=O)[C@@]3(O)C(O)=C1C2=O [tigecycline] | 3.91 | 5.95 | 4.97 | 
32 | CCN1CCCC(OC(=O)C(c2ccccc2)c2ccccc2)C1 (stereo not drawn) [piperidolate hydrochloride] | 3.58 | 3.76 | 5.72 | 
33 | Cc1ccc(C(=O)C(C)CN2CCCCC2)cc1 (stereo not drawn) [tolperisone hydrochloride] | 3.57 | 3.67 | 5.49 | 
34 | CN(C)CC/C=C1/c2ccccc2Sc2ccc(Cl)cc21 [chlorprothixene hydrochloride] | 6.17 | 5.04 | 3.17 | 
35 | CN[C@H]1CC[C@@H](c2ccc(Cl)c(Cl)c2)c2ccccc21 [sertraline hydrochloride] | 3.42 | 4.15 | 4.82 | 
36 | COc1cccc2c1C(=O)c1c(O)c3c(c(O)c1C2=O)C[C@@](O)(C(=O)CO)C[C@@H]3O[C@H]1C[C@H](N)[C@H](O)[C@H](C)O1 [doxorubicin] | 4.02 | 5.05 | 4.00 | 
